One experiment has as its target T1, Cathepsin K (Homo sapiens, UniProt P43235).
T1 sequence (P43235 whole entry): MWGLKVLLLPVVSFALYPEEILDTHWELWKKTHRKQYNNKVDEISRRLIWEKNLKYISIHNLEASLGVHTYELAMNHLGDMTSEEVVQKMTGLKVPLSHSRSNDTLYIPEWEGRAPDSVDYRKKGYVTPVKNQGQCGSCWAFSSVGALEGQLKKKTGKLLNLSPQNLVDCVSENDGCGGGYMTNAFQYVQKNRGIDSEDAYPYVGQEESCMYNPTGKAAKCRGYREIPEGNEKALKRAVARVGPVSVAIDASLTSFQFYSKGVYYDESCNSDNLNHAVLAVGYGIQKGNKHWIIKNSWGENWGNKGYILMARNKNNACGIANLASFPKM
Put plainly: Inhibition of Cathepsin K (unknown origin).

The species entered for experiment [1] is Homo sapiens. Put plainly: Inhibition of cIAP BIR3 domain (unknown origin) at 1000 uM relative to control.
A further experiment addresses Cathepsin S (Homo sapiens, UniProt P25774). The experiment is described as follows: Inhibition of Cathepsin S (unknown origin).
In a further experiment the target is Procathepsin L (Homo sapiens, UniProt P07711). Put plainly: Inhibition of human Cathepsin L.
Sequence of Procathepsin L (P07711 whole entry, the tested form may be a part): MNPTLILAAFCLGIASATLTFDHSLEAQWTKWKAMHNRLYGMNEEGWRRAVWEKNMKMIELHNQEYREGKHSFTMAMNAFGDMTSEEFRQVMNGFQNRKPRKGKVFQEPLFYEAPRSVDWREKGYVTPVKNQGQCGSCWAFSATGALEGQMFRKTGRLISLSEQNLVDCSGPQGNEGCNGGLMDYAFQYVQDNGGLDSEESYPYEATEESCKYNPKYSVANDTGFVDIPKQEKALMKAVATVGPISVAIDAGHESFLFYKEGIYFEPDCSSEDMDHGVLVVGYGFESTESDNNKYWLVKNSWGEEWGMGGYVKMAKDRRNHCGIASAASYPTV
The species entered for experiment [2] is Homo sapiens. The experiment is described as follows: Inhibition of cIAP BIR3 domain (unknown origin) at 495 uM relative to control.

Sequence of Cathepsin S (P25774 whole entry): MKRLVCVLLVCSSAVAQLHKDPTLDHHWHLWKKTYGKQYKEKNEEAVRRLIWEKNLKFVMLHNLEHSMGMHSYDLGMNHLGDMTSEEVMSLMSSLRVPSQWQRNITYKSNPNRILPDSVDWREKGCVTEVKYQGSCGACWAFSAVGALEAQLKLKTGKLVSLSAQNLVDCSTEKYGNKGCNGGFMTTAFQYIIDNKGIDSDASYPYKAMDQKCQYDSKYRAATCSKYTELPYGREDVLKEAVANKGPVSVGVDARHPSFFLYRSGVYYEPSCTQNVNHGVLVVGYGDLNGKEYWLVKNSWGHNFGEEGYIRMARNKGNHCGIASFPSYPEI

`COc1ccc(S(=O)(=O)[C@@H]2C[C@@H](C(=O)NC3(C#N)CC3)N(C(=O)C3(c4ccc(Cl)cn4)CC3)C2)c(Cl)c1` had an IC50 on Cathepsin K of 11 µM.
Take `C[C@@H]1CN(CC(=O)N2CCc3ccc(N)cc32)CCN1`: in the experiment filed under Homo sapiens [1], the inhibition was found to be 8%.
`COc1ccc(S(=O)(=O)[C@@H]2C[C@@H](C(=O)NC3(C#N)CC3)N(C(=O)C3(c4ccc(Cl)cn4)CNC3)C2)c(Cl)c1`: the IC50 against Cathepsin S amounted to 1.4 nM; at Procathepsin L, 36 nM; at Cathepsin K, 6.5 µM.
`C[C@@H]1CN(CC(=O)N2CCc3ccccc32)CCN1` came in with an inhibition in the experiment filed under Homo sapiens [2] of 42%.
With `N#CC1(NC(=O)[C@@H]2C[C@@H](S(=O)(=O)c3ccccc3Cl)CN2C(=O)C2(c3ncc(Br)cc3F)CNC2)CC1`, the half-inhibitory concentration (IC50) against Cathepsin S was found to be 1 nM; on Procathepsin L, 5 nM; against Cathepsin K it was 2 µM.

In general, IC50 refers to the concentration that inhibits the measured activity by half. A low value points to greater potency in that assay. One may read the inhibition as the drop in the measured response relative to a control, in per cent. Read a high inhibition as a response far below the control.

(Values after ChEMBL document CHEMBL5137020, “Electrostatic Complementarity in Structure-Based Drug Design” (J Med Chem, 2022).)
